In article PMC12064818, “A general assay platform to study protein pharmacology using ligand-dependent structural dynamics” (Nature Communications, 2025):
Where two headings read alike, the source gives them in different places.

Key:
[1] = system: PKA; conditions: cited from earlier work
[2] = target: PKA-N-HiBiT (Homo sapiens, UniProt P17612); experiment: SDR assay, PKA-N-HiBiT
[3] = target: P. pyralis FLuc (Photinus pyralis, UniProt P08659); experiment: FLuc enzymatic luminescence assay, P. pyralis FLuc; type: biochemical; conditions: FLuc enzymatic assay; for IC50: read-out: IC50 or SDR50 (mM) FLuc E
P. pyralis FLuc, sequence (P08659 whole entry): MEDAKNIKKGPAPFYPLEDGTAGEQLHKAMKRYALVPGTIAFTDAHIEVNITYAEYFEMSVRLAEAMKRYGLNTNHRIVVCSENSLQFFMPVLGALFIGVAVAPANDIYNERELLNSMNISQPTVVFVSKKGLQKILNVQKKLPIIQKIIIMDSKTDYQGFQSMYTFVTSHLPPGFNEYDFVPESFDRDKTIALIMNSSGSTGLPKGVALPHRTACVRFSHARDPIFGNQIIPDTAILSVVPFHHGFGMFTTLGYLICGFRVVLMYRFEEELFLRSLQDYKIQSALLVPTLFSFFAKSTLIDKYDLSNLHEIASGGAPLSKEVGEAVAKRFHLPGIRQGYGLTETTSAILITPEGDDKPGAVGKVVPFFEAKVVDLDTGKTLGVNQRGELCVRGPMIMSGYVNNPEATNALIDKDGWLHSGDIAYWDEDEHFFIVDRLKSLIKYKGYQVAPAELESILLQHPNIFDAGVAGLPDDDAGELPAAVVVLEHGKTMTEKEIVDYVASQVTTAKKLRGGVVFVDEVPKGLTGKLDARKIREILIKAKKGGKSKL
Outline: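 Runs with and without 10 µM ATP: compounds were pre-incubated with FLuc (1–10 nM, PBS pH 7.4) at ambient temperature, light-protected, for 30–60 min. Luminescence was imaged 5 min after adding 10 µM D-luciferin (final). Inhibition was scaled between DMSO neutral and no-enzyme controls.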

[4] = target: FLuc-C-HiBiT (firefly luciferase) (Photinus pyralis, UniProt P08659, form not given/L550V); experiment: SDR assay, FLuc-C-HiBiT; conditions: for % Activity (max response, + ATP) / % Activity (max response, - ATP): SDR max. response, clade S; for % Activity (max response, - ATP) / pSDR50 (clade S): - ATP; for pSDR50 (clade S): dihydro-imidazo-oxazine (clade S)
FLuc-C-HiBiT (firefly luciferase), sequence (P08659 2-550 L550V, form open): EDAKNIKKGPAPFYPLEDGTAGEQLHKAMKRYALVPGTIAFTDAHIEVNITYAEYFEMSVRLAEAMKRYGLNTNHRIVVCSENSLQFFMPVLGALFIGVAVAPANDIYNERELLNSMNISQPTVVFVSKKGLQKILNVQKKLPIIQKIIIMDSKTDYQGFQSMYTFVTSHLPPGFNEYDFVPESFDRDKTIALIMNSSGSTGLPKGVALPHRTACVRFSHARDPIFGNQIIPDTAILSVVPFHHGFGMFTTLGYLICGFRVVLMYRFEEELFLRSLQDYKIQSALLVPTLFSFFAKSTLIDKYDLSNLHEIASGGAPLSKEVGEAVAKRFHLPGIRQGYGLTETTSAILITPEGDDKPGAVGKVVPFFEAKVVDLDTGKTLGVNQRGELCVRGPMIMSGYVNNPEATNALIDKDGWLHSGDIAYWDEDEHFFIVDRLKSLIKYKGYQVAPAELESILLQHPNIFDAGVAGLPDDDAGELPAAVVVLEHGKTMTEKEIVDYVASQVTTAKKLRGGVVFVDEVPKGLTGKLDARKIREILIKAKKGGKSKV

[5] = target: FLuc-C-NLuc (firefly luciferase) (Photinus pyralis, UniProt P08659, form not given/L550V); experiment: SDR assay, FLuc-C-NLuc; conditions: - ATP
FLuc-C-NLuc (firefly luciferase), sequence (P08659 2-550 L550V, form open): as above

[6] = target: T1, FLuc-C-HiBiT (Photinus pyralis, UniProt P08659); experiment: biochemical; conditions: enzyme activity, 10 uM ATP; read-out: IC50 or SDR50 (mM) / FLuc E
T1 construct: firefly luciferase with C-terminal HiBiT tag, E. coli expressed
T1 sequence (P08659 whole entry, looked up): as the sequence (P08659 whole entry) above

[7] = target: T2, NLuc (Oplophorus gracilirostris, UniProt Q9GV45, A31E/A60N/A81I/F95D/I117V/K70R/L54V/L99Q/M102K/N193R/P142E/Q151K/Q38R/Q45L/V71I/Y165I); type: biochemical; conditions: - ATP
T2 construct: His tag (inferred from IMAC purification); made in house; host or cells: E. coli
T2 sequence (Q9GV45 other isoform, or with tags, fused parts or gaps with the stated changes): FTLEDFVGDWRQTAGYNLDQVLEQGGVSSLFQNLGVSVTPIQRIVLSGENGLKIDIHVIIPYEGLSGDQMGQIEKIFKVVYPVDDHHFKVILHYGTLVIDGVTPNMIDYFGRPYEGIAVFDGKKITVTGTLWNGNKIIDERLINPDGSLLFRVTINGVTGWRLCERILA
Outline: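 Test compounds added to 1 nM NLuc in PBS with 0.05% IGEPAL, ± ATP. Nano-Glo reagent added and incubated 10 min before luminescence read.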

[8] = annotation yes/no for kinase library compound, source not given
[9] = PKA-N-HiBiT qHTS, SDR assay, average maximal response

Molecule | Annotated PKA activity [1, 8] | Efficacy (%) FLuc E ([3]; Clade S follow-up) [%] | % Activity (max response, + ATP) [4] [%] | % Activity (max response, - ATP) [4] [%] | Efficacy (%) FLuc-C-NLuc SDR (-ATP) [5] [%] | IC50 [6] [mM] | Efficacy (%) NLuc (- ATP) [7] [%] | other results
TAE-684 | no |  |  |  |  |  |  | SDR Ave Max Response [2, 9]: 28.42; EC50 ([2]; read-out: PKA SDR Ave SDR50, PKA-N-HiBiT qHTS, SDR assay, average): 9.6 µM
Tozasertib | no |  |  |  |  |  |  | SDR Ave Max Response [2]: -1.35
Cc1cn(-c2cc(F)cc(NC(=O)c3ccc(C)c(Nc4nccc(-c5cccnc5)n4)c3)c2)cn1 [NSC762950] | no |  |  |  |  |  |  | SDR Ave Max Response [2, 9]: -15.93
CO[C@@H](C(=O)N1Cc2n[nH]c(NC(=O)c3ccc(N4CCN(C)CC4)cc3)c2C1)c1ccccc1 [Danusertib] | no |  |  |  |  |  |  | SDR Ave Max Response [2, 9]: 4.52
CC(C)n1nc(-c2cc3cc(O)ccc3[nH]2)c2c(N)ncnc21 [PP 242] |  |  |  |  |  |  |  | Annotated PKA activity [1]: yes
Cc1ccc(NC(=O)c2ccc(CN3CCN(C)CC3)cc2)cc1Nc1nc(-c2cccnc2)cs1 [Masitinib] | no |  |  |  |  |  |  | 
CCOc1ccc(NC(=O)C2CCN(C(=O)c3ncn4c3COC(c3ccccc3)C4)CC2)cc1 (centres unmarked) [NCGC00449913-01] |  | -92.73 | 212.53 | 0.00 | 0.00 | 0.007 | -11.50 | pIC50 or pSDR50 FLuc E ([3]; Clade S follow-up): 5.36; IC50 ([3]; Clade S follow-up): 0.00441 mM
CC(C)c1cccc(NC(=O)C2CCN(C(=O)c3ncn4c3COC(c3ccccc3)C4)CC2)c1 (centres unmarked) [NCGC00449908-01] |  | -95.10 | 304.79 | 0.00 | 0.00 | 0.00785 | 0.00 | pIC50 or pSDR50 FLuc E ([3]; Clade S follow-up): 5.26; IC50 ([3]; Clade S follow-up): 0.00555 mM
C=CC(=O)Nc1cc2c(Nc3ccc(F)c(Cl)c3)ncnc2cc1OCCCN1CCOCC1 [Canertinib] | no |  |  |  |  |  |  | 
CN[C@@H]1C[C@H]2O[C@@](C)([C@@H]1OC)n1c3ccccc3c3c4c(c5c6ccccc6n2c5c31)C(=O)NC4 [staurosporine, reference compound] | yes |  |  |  |  |  |  | 
Cc1cc(C)cc(NC(=O)C2CCN(C(=O)c3ncn4c3COC(c3ccccc3)C4)CC2)c1 (centres unmarked) [NCGC00449905-01] |  | -86.91 | 375.38 | 0.00 | 0.00 | 0.00313 | 0.00 | pIC50 or pSDR50 FLuc E ([3]; Clade S follow-up): 5.46; IC50 ([3]; Clade S follow-up): 0.0035 mM
CCCCNC(=O)C1CCN(C(=O)c2ncn3c2COC(c2ccccc2)C3)CC1 (centres unmarked) [NCGC00449772-01] |  | -88.46 | 357.97 | 0.00 | 0.00 | 0.00624 | 0.00 | pIC50 or pSDR50 FLuc E [3]: 5.11; IC50 [3]: 0.00784 mM
Cc1cc(C)c(/C=C2\C(=O)Nc3ccccc32)[nH]1 [Semaxanib] | no |  |  |  |  |  |  | 
CSc1cccc(Nc2ncc3cc(-c4c(Cl)cccc4Cl)c(=O)n(C)c3n2)c1 [PD-173955] | no |  |  |  |  |  |  | 
O=C(NCc1ccco1)C1CCN(C(=O)c2ncn3c2COC(c2ccccc2)C3)CC1 (centres unmarked) [NCGC00449791-01] |  | -97.55 | 367.63 | 0.00 | 0.00 | 0.00248 | 0.00 | pIC50 or pSDR50 FLuc E [3]: 5.56; IC50 [3]: 0.00278 mM
O=C(NCCc1cccs1)C1CCN(C(=O)c2ncn3c2COC(c2ccccc2)C3)CC1 (centres unmarked) [NCGC00449796-01] |  | -97.05 | 316.37 | 0.00 | 0.00 | 0.00442 | 0.00 | pIC50 or pSDR50 FLuc E [3]: 5.26; IC50 [3]: 0.00555 mM

Molecule | Annotated PKA activity [1, 8] | Efficacy (%) FLuc E ([3]; Clade S follow-up) [%] | % Activity (max response, + ATP) [4] [%] | % Activity (max response, - ATP) [4] [%] | Efficacy (%) FLuc-C-NLuc SDR (-ATP) [5] [%] | IC50 [6] [mM] | Efficacy (%) NLuc (- ATP) [7] [%] | other results
O=C(NCc1cc(F)ccc1F)C1CCN(C(=O)c2ncn3c2COC(c2ccccc2)C3)CC1 (centres unmarked) [NCGC00449804-01] |  | -84.67 | 321.30 | 16.31 | 0.00 | 0.00313 | 0.00 | pIC50 or pSDR50 FLuc E [3]: 5.41; IC50 [3]: 0.00393 mM
CCOc1ccccc1CNC(=O)C1CCN(C(=O)c2ncn3c2COC(c2ccccc2)C3)CC1 (centres unmarked) [NCGC00449779-01] |  | -109.28 | 223.68 | 0.00 | 0.00 | 0.00313 | 0.00 | pIC50 or pSDR50 FLuc E [3]: 5.21; IC50 [3]: 0.00623 mM
COc1cc2c(Oc3ccc(NC(=O)C4(C(=O)Nc5ccc(F)cc5)CC4)cc3F)ccnc2cc1OCCCN1CCOCC1 [Foretinib] | no |  |  |  |  |  |  | 
COc1ccc(NC(=O)C2CCN(C(=O)c3ncn4c3COC(c3ccccc3)C4)CC2)cc1Cl (centres unmarked) [NCGC00449919-01] |  | -103.24 | 241.73 | 38.71 | -15.13 | 0.000881 | -11.50 | pIC50 or pSDR50 FLuc E ([3]; Clade S follow-up): 6.36; IC50 ([3]; Clade S follow-up): 0.00044 mM; pSDR50 (clade S) [4]: 4.85
COc1ccc(C)cc1NC(=O)C1CCN(C(=O)c2ncn3c2COC(c2ccc(F)cc2)C3)CC1 (centres unmarked) [NCGC00449936-01] |  | -99.49 | 128.83 | -5.78 | 0.00 | 0.00989 | 0.00 | pIC50 or pSDR50 FLuc E ([3]; Clade S follow-up): 5.06; IC50 ([3]; Clade S follow-up): 0.0088 mM
O=C(Nc1ccc(F)c(Cl)c1)C1CCN(C(=O)c2ncn3c2COC(c2ccccc2)C3)CC1 (centres unmarked) [NCGC00449918-01] |  | -99.81 | 238.83 | 49.33 | 0.00 | 0.000989 | 0.00 | pIC50 or pSDR50 FLuc E ([3]; Clade S follow-up): 6.16; IC50 ([3]; Clade S follow-up): 0.0007 mM; pSDR50 (clade S) [4]: 4.95
Cc1ccc(NC(=O)C2CCN(C(=O)c3ncn4c3COC(c3ccccc3)C4)CC2)cc1 (centres unmarked) [NCGC00449903-01] |  | -93.84 | 343.11 | 0.00 | 0.00 | 0.00176 | 0.00 | pIC50 or pSDR50 FLuc E ([3]; Clade S follow-up): 5.61; IC50 ([3]; Clade S follow-up): 0.00248 mM
O=C(NCc1ccc(F)cc1Cl)C1CCN(C(=O)c2ncn3c2COC(c2ccccc2)C3)CC1 (centres unmarked) [NCGC00449789-01] |  | -100.38 | 205.97 | 0.00 | 0.00 | 0.00881 | 0.00 | pIC50 or pSDR50 FLuc E [3]: 5.01; IC50 [3]: 0.00988 mM
Nc1ncccc1-c1nc2ccc(-c3ccccc3)nc2n1-c1ccc(C2(N)CCC2)cc1 [Miransertib] | no |  |  |  |  |  |  | 
COc1ccc(NC(=O)C2CCN(C(=O)c3ncn4c3COC(c3ccccc3)C4)CC2)cc1 (centres unmarked) [NCGC00449910-01] |  | -79.86 | 319.33 | 0.00 | 0.00 | 0.00785 | 0.00 | pIC50 or pSDR50 FLuc E ([3]; Clade S follow-up): 5.06; IC50 ([3]; Clade S follow-up): 0.0088 mM
CCN1CCN(Cc2ccc(NC(=O)Nc3ccc(Oc4cc(NC)ncn4)cc3)cc2C(F)(F)F)CC1 [AST-487] | yes |  |  |  |  |  |  | 
CSc1ccc(CNC(=O)C2CCN(C(=O)c3ncn4c3COC(c3ccccc3)C4)CC2)cc1 (centres unmarked) [NCGC00449782-01] |  | -89.02 | 293.16 | 0.00 | 0.00 | 0.00624 | -35.74 | pIC50 or pSDR50 FLuc E [3]: 5.26; IC50 [3]: 0.00555 mM; pIC50 or pSDR50 NLuc (- ATP) [7]: 4.71; IC50 ([7]; read-out: IC50 or SDR50 (mM) NLuc (- ATP)): 0.0197 mM
PHA-665752 | no |  |  |  |  |  |  | 
O=C(Nc1ccc(F)cc1)C1CCN(C(=O)c2ncn3c2COC(c2ccccc2)C3)CC1 (centres unmarked) [NCGC00449915-01] |  | -91.87 | 357.60 | 0.00 | 0.00 | 0.00176 | 0.00 | pIC50 or pSDR50 FLuc E ([3]; Clade S follow-up): 5.91; IC50 ([3]; Clade S follow-up): 0.00124 mM
COc1cc2ncnc(Nc3ccc(F)c(Cl)c3)c2cc1OCCCN1CCOCC1 [Gefitinib] | no |  |  |  |  |  |  | 
